{"source": "PubChem BioAssay (NCI)", "experiment_in_all_cases": "inhibition of tumour cell growth, NCI panel, 48 h", "key": {"[1]": {"test_system": "A549 NSCLC"}, "[2]": {"test_system": "ACHN renal"}, "[3]": {"test_system": "CAKI-1 renal"}, "[4]": {"test_system": "CCRF-CEM leukemia"}, "[5]": {"test_system": "COLO 205 colon"}, "[6]": {"test_system": "DLD-1 colon"}, "[7]": {"test_system": "DMS 114 small cell lung"}, "[8]": {"test_system": "DMS 273 small cell lung"}, "[9]": {"test_system": "EKVX NSCLC"}, "[10]": {"test_system": "HCC-2998 colon"}, "[11]": {"test_system": "HCT-116 colon"}, "[12]": {"test_system": "HCT-15 colon"}, "[13]": {"test_system": "HL-60(TB) leukemia"}, "[14]": {"test_system": "HOP-62 NSCLC"}, "[15]": {"test_system": "HOP-92 NSCLC"}, "[16]": {"test_system": "HT29 colon"}, "[17]": {"test_system": "IGROV1 ovarian"}, "[18]": {"test_system": "K-562 leukemia"}, "[19]": {"test_system": "KM12 colon"}, "[20]": {"test_system": "KM20L2 colon"}, "[21]": {"test_system": "LOX IMVI melanoma"}, "[22]": {"test_system": "LXFL 529 NSCLC"}, "[23]": {"test_system": "M14 melanoma"}, "[24]": {"test_system": "M19-MEL melanoma"}, "[25]": {"test_system": "MALME-3M melanoma"}, "[26]": {"test_system": "MOLT-4 leukemia"}, "[27]": {"test_system": "NCI-H226 lung"}, "[28]": {"test_system": "NCI-H460 lung"}, "[29]": {"test_system": "NCI-H522 lung"}, "[30]": {"test_system": "OVCAR-3 ovarian"}, "[31]": {"test_system": "OVCAR-4 ovarian"}, "[32]": {"test_system": "OVCAR-5 ovarian"}, "[33]": {"test_system": "OVCAR-8 ovarian"}, "[34]": {"test_system": "RPMI-8226 leukemia"}, "[35]": {"test_system": "RXF 393 renal"}, "[36]": {"test_system": "SF-268 CNS"}, "[37]": {"test_system": "SF-295 CNS"}, "[38]": {"test_system": "SF-539 CNS"}, "[39]": {"test_system": "SK-MEL-2 melanoma"}, "[40]": {"test_system": "SK-MEL-28 melanoma"}, "[41]": {"test_system": "SK-OV-3 ovarian"}, "[42]": {"test_system": "SN12C renal"}, "[43]": {"test_system": "SNB-19 CNS"}, "[44]": {"test_system": "SR leukemia"}, "[45]": {"test_system": "SW-620 colon"}, "[46]": {"test_system": "TK-10 renal"}, "[47]": {"test_system": "UACC-62 melanoma"}, "[48]": {"test_system": "UO-31 renal"}, "[49]": {"test_system": "XF 498 CNS"}, "[50]": {"test_system": "A498 renal"}, "[51]": {"test_system": "NCI-H23 lung"}, "[52]": {"test_system": "SK-MEL-5 melanoma"}, "[53]": {"test_system": "SNB-78 CNS"}, "[54]": {"test_system": "U251 CNS"}, "[55]": {"test_system": "UACC-257 melanoma"}}, "note": "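The compound was tested at five concentrations on cells cultured in 96-well plates, with a 48-hour exposure period. Definition used: TGI = concentration required for complete inhibition of growth.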"}
{"smiles": "CC(/C=C/c1ncccc1OCCCCCC(=O)O)=N\\NC1=NCCN1", "values": [{"measurement": "TGI", "setting": "[1]", "result": "> 100", "unit": "µM"}, {"measurement": "TGI", "setting": "[2]", "result": "> 100", "unit": "µM"}, {"measurement": "TGI", "setting": "[3]", "result": "> 100", "unit": "µM"}, {"measurement": "TGI", "setting": "[4]", "result": "> 100", "unit": "µM"}, {"measurement": "TGI", "setting": "[5]", "result": "> 100", "unit": "µM"}, {"measurement": "TGI", "setting": "[6]", "result": "> 100", "unit": "µM"}, {"measurement": "TGI", "setting": "[7]", "result": "> 100", "unit": "µM"}, {"measurement": "TGI", "setting": "[8]", "result": "> 100", "unit": "µM"}, {"measurement": "TGI", "setting": "[9]", "result": "> 100", "unit": "µM"}, {"measurement": "TGI", "setting": "[10]", "result": "> 100", "unit": "µM"}, {"measurement": "TGI", "setting": "[11]", "result": "> 100", "unit": "µM"}, {"measurement": "TGI", "setting": "[12]", "result": "> 100", "unit": "µM"}, {"measurement": "TGI", "setting": "[13]", "result": "> 100", "unit": "µM"}, {"measurement": "TGI", "setting": "[14]", "result": "> 100", "unit": "µM"}, {"measurement": "TGI", "setting": "[15]", "result": "> 100", "unit": "µM"}, {"measurement": "TGI", "setting": "[16]", "result": "> 100", "unit": "µM"}, {"measurement": "TGI", "setting": "[17]", "result": "> 100", "unit": "µM"}, {"measurement": "TGI", "setting": "[18]", "result": "> 100", "unit": "µM"}, {"measurement": "TGI", "setting": "[19]", "result": "> 100", "unit": "µM"}, {"measurement": "TGI", "setting": "[20]", "result": "> 100", "unit": "µM"}, {"measurement": "TGI", "setting": "[21]", "result": "> 100", "unit": "µM"}, {"measurement": "TGI", "setting": "[22]", "result": "> 100", "unit": "µM"}, {"measurement": "TGI", "setting": "[23]", "result": "> 100", "unit": "µM"}, {"measurement": "TGI", "setting": "[24]", "result": "> 100", "unit": "µM"}, {"measurement": "TGI", "setting": "[25]", "result": "> 100", "unit": "µM"}, {"measurement": "TGI", "setting": "[26]", "result": "> 100", "unit": "µM"}, {"measurement": "TGI", "setting": "[27]", "result": "> 100", "unit": "µM"}, {"measurement": "TGI", "setting": "[28]", "result": "> 100", "unit": "µM"}, {"measurement": "TGI", "setting": "[29]", "result": "> 100", "unit": "µM"}, {"measurement": "TGI", "setting": "[30]", "result": "> 100", "unit": "µM"}, {"measurement": "TGI", "setting": "[31]", "result": "> 100", "unit": "µM"}, {"measurement": "TGI", "setting": "[32]", "result": "> 100", "unit": "µM"}, {"measurement": "TGI", "setting": "[33]", "result": "> 100", "unit": "µM"}, {"measurement": "TGI", "setting": "[34]", "result": "> 100", "unit": "µM"}, {"measurement": "TGI", "setting": "[35]", "result": "> 100", "unit": "µM"}, {"measurement": "TGI", "setting": "[36]", "result": "> 100", "unit": "µM"}, {"measurement": "TGI", "setting": "[37]", "result": "> 100", "unit": "µM"}, {"measurement": "TGI", "setting": "[38]", "result": "> 100", "unit": "µM"}, {"measurement": "TGI", "setting": "[39]", "result": "> 100", "unit": "µM"}, {"measurement": "TGI", "setting": "[40]", "result": "> 100", "unit": "µM"}, {"measurement": "TGI", "setting": "[41]", "result": "> 100", "unit": "µM"}, {"measurement": "TGI", "setting": "[42]", "result": "> 100", "unit": "µM"}, {"measurement": "TGI", "setting": "[43]", "result": "> 100", "unit": "µM"}, {"measurement": "TGI", "setting": "[44]", "result": "> 100", "unit": "µM"}, {"measurement": "TGI", "setting": "[45]", "result": "> 100", "unit": "µM"}, {"measurement": "TGI", "setting": "[46]", "result": "> 100", "unit": "µM"}, {"measurement": "TGI", "setting": "[47]", "result": "> 100", "unit": "µM"}, {"measurement": "TGI", "setting": "[48]", "result": "> 100", "unit": "µM"}, {"measurement": "TGI", "setting": "[49]", "result": "> 100", "unit": "µM"}]}
{"smiles": "Clc1ccccc1C(n1cc(Br)cn1)n1cc(Br)cn1", "values": [{"measurement": "TGI", "setting": "[50]", "result": 35.9, "unit": "µM"}, {"measurement": "TGI", "setting": "[2]", "result": 55.2, "unit": "µM"}, {"measurement": "TGI", "setting": "[3]", "result": "> 100", "unit": "µM"}, {"measurement": "TGI", "setting": "[4]", "result": 93.1, "unit": "µM"}, {"measurement": "TGI", "setting": "[6]", "result": 54, "unit": "µM"}, {"measurement": "TGI", "setting": "[7]", "result": 56, "unit": "µM"}, {"measurement": "TGI", "setting": "[8]", "result": 53, "unit": "µM"}, {"measurement": "TGI", "setting": "[11]", "result": 42.9, "unit": "µM"}, {"measurement": "TGI", "setting": "[13]", "result": 44.6, "unit": "µM"}, {"measurement": "TGI", "setting": "[14]", "result": 57.9, "unit": "µM"}, {"measurement": "TGI", "setting": "[16]", "result": 29, "unit": "µM"}, {"measurement": "TGI", "setting": "[18]", "result": "> 100", "unit": "µM"}, {"measurement": "TGI", "setting": "[19]", "result": 40.8, "unit": "µM"}, {"measurement": "TGI", "setting": "[21]", "result": 31.2, "unit": "µM"}, {"measurement": "TGI", "setting": "[22]", "result": "> 100", "unit": "µM"}, {"measurement": "TGI", "setting": "[23]", "result": 36.9, "unit": "µM"}, {"measurement": "TGI", "setting": "[24]", "result": 34.5, "unit": "µM"}, {"measurement": "TGI", "setting": "[25]", "result": 46.9, "unit": "µM"}, {"measurement": "TGI", "setting": "[26]", "result": 39.2, "unit": "µM"}, {"measurement": "TGI", "setting": "[51]", "result": "> 100", "unit": "µM"}, {"measurement": "TGI", "setting": "[28]", "result": 28.1, "unit": "µM"}, {"measurement": "TGI", "setting": "[29]", "result": "> 100", "unit": "µM"}, {"measurement": "TGI", "setting": "[31]", "result": "> 100", "unit": "µM"}, {"measurement": "TGI", "setting": "[32]", "result": 49, "unit": "µM"}, {"measurement": "TGI", "setting": "[33]", "result": 55.1, "unit": "µM"}, {"measurement": "TGI", "setting": "[34]", "result": 46.3, "unit": "µM"}, {"measurement": "TGI", "setting": "[35]", "result": 34.4, "unit": "µM"}, {"measurement": "TGI", "setting": "[37]", "result": 43.1, "unit": "µM"}, {"measurement": "TGI", "setting": "[39]", "result": 45.6, "unit": "µM"}, {"measurement": "TGI", "setting": "[40]", "result": "> 100", "unit": "µM"}, {"measurement": "TGI", "setting": "[52]", "result": 23.1, "unit": "µM"}, {"measurement": "TGI", "setting": "[42]", "result": 30.6, "unit": "µM"}, {"measurement": "TGI", "setting": "[43]", "result": "> 100", "unit": "µM"}, {"measurement": "TGI", "setting": "[53]", "result": "> 100", "unit": "µM"}, {"measurement": "TGI", "setting": "[44]", "result": 92.9, "unit": "µM"}, {"measurement": "TGI", "setting": "[46]", "result": "> 100", "unit": "µM"}, {"measurement": "TGI", "setting": "[54]", "result": "> 100", "unit": "µM"}, {"measurement": "TGI", "setting": "[55]", "result": 31.7, "unit": "µM"}, {"measurement": "TGI", "setting": "[48]", "result": 32.6, "unit": "µM"}, {"measurement": "TGI", "setting": "[49]", "result": 40.6, "unit": "µM"}]}
